Laboratory results as given in PMC3654204, “2-Aminoethoxydiphenyl borate activates the mechanically gated human KCNK channels KCNK 2 (TREK-1), KCNK 4 (TRAAK), and KCNK 10 (TREK-2)” (Frontiers in Pharmacology, 2013).

Legend:
Test in all cases: two-electrode voltage clamp, Xenopus oocytes, current at +[…] mV
Type in all cases: cell-based
hKCNK2 (hTREK-1) = target: T1, hKCNK2 (hTREK-1) (Homo sapiens, UniProt O95069)
T1 construct: gene KCNK2; full-length cDNA clone in pDNR-dual purchased from Imagenes, subcloned into pSGEM; cRNA injected in Xenopus laevis oocytes; K2P channels are homodimers
T1 sequence (O95069 1-426): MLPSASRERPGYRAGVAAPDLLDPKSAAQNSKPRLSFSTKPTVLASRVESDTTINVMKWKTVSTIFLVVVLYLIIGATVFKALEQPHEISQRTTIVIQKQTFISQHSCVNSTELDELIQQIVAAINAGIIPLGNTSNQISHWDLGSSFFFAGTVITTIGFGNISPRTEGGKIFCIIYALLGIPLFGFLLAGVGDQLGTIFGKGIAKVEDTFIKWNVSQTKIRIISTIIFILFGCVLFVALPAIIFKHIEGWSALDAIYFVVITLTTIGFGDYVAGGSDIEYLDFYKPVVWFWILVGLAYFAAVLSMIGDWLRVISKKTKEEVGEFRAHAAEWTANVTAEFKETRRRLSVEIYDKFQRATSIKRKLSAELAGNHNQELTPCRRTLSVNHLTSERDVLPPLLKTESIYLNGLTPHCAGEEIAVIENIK

hKCNK4 (hTRAAK) = target: T2, hKCNK4 (hTRAAK) (Homo sapiens, UniProt Q9NYG8); conditions: activator; frog Ringer's solution, pH 7.2; EC50 could not be determined; also active in inside-out HEK293 patches
T2 construct: gene KCNK4; full-length cDNA clone in pBluescript SK+ purchased from Imagenes; cRNA injected in Xenopus laevis oocytes, pCDNA3 in HEK293; K2P channels are homodimers
T2 sequence (Q9NYG8 1-393): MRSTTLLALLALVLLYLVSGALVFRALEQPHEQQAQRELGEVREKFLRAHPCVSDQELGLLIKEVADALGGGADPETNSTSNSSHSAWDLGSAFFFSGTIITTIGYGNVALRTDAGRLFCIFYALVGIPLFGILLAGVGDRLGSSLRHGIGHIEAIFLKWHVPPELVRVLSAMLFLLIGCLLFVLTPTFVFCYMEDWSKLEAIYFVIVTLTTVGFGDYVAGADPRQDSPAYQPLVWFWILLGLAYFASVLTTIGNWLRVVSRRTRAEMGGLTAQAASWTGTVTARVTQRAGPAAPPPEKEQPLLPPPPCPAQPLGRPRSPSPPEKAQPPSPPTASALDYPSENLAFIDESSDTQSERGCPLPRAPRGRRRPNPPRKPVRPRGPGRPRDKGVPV

hKCNK10 (TREK-2) = target: T3, hKCNK10 (TREK-2) (Homo sapiens, UniProt P57789)
T3 construct: gene KCNK10; full-length cDNA clone purchased from Imagenes, subcloned into pSGEM (cRNA, Xenopus laevis oocytes) and pCDNA3 (HEK293); K2P channels are homodimers
T3 sequence (P57789 1-538): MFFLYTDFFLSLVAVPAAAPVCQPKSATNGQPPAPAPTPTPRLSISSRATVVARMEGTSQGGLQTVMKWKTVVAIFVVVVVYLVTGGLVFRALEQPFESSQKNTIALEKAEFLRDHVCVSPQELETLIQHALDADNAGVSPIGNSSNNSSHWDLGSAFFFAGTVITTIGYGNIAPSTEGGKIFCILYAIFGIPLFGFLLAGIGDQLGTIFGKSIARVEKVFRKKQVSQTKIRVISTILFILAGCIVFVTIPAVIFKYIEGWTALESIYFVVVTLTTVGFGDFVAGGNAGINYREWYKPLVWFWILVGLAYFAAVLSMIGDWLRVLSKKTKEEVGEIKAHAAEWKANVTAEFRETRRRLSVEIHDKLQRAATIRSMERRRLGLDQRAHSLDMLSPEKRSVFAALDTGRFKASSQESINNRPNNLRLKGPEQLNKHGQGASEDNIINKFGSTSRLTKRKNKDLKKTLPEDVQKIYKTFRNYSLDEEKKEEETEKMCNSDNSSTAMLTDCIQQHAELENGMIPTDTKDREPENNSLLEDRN

NCCOB(c1ccccc1)c1ccccc1 [2-APB]
EC50 (hKCNK2 (hTREK-1)): 486 ± 135 µM | fold of basal current at 1 mM (hKCNK4 (hTRAAK)): 2.68 ± 0.2 fold | EC50 (hKCNK10 (TREK-2)): 1220 ± 390 µM
